{"source": "patent US20250275964A1", "about": "“METHODS OF INHIBITING LIVER-TYPE GLUTAMINASE, GLS2” (CORNELL UNIVERSITY, priority 2019, published 2025)", "key": {"[1]": {"test_system": "BT-474 cells", "assay": "6-day cell proliferation assay, BT-474", "format": "cell-based, human", "conditions": "BT-474, proliferation over 6 days", "protocol": "Human breast cancer cell lines MCF7, BT-474, T-47D, MDA-MB-453, MDA-MB-231, Hs 578T, HCC38, SK-BR-3, and DU4475 were purchased from the American Type Culture Collection (ATCC) and no additional cell authentication was performed. The TSE human breast cancer cell line was supplied by Dr. Steven Abcouwer (University of Michigan). All breast cancer cells were cultured at 37° C. under a 5% CO2 atmosphere in RPMI 1640 medium containing 2 mM glutamine (Gibco) and supplemented with 10% fetal bovine serum (FBS) (Gibco). The 293T cell line (ATCC) used for generating lentivirus particles was cultured as above but using DMEM, high glucose (Gibco).\nCulture medium was added to 12-well plates (1 ml/well) and wells were seeded with cells at Day 0 as follows. MCF7, T-47D, BT-474, HCC38 cells: […] cells/well. MDA-MB-453 and MDA-MB-231 cells: 1×10^4 cells/well. TSE and Hs 578T cells: 0.3×10^4 cells/well. After 16 hours, culture medium was replaced with fresh medium supplemented with appropriate concentrations of inhibitors and was subsequently replaced every 48 hours. On Day 6 cells were trypsinized and suspended in an appropriate volume of culture medium, and the total number of cells per well was determined using a hemocytometer or a TC20 Automated Cell Counter (Bio-Rad)."}, "[2]": {"test_system": "glutamine-mediated TCA cycle anaplerosis in breast cancer cells", "assay": "[U-13C]-glutamine labeling and metabolite analysis", "format": "cell-based, human", "protocol": "The procedures for metabolite extraction from cultured cells are described in previous studies (Cluntun et al., “The Rate of Glycolysis Quantitatively Mediates Specific Histone Acetylation Sites,” Cancer Metab. 3:10 (2015); Liu et al., “A Strategy for Sensitive, Large Scale Quantitative Metabolomics,” J. Vis. Exp. e51358-e51358 (2014), which are hereby incorporated by reference in their entirety). Briefly, adherent cells were grown in 6-well plates in biological triplicate to 80% confluence, medium was rapidly aspirated and cells were washed with cold PBS on ice. Then, 1 ml of extraction solvent (80% methanol/water) cooled to −80° C. was added to each well, and the dishes were transferred to −80° C. for 15 min. Cells were then scraped into the extraction solvent on dry ice. All metabolite extracts were centrifuged at 20,000×g at 4° C. for 10 min. Finally, the solvent in each sample was evaporated in a Speed Vacuum. The cell extracts were dissolved in 15 μl water and 15 μl methanol/acetonitrile (1:1 v/v) (LC-MS optima grade, Thermo Fisher Scientific). Samples were centrifuged at 20,000×g for 10 min at 4° C. and the supernatants were transferred to Liquid Chromatography (LC) vials. The injection volume for polar metabolite analysis was 8 μl.\nCells were grown to 80% confluence in 6-well plates with standard culture medium and washed with sterile PBS. Then, culture medium in which glutamine was replaced by [^13C5]-L-glutamine (Cambridge Isotope Laboratories), supplemented with dialyzed FBS (Gibco) and appropriate concentrations of inhibitors was added (1.5 ml/well). At the appropriate time-point, metabolites were extracted as described above.\nA hydrophilic interaction liquid chromatography method (HILIC) with an Xbridge amide column (100×2.1 mm, 3.5 μm) (Waters) was employed on a Dionex (Ultimate 3000 UHPLC) for compound separation and detection at room temperature. The mobile phase A was 20 mM ammonium acetate and 15 mM ammonium hydroxide in water with 3% acetonitrile, pH 9.0, and the mobile phase B was acetonitrile. The linear gradient was as follows: 0 min, 85% B; 1.5 min, 85% B, 5.5 min, 35% B; 10 min, 35% B, 10.5 min, 35% B, 14.5 min, 35% B, 15 min, 85% B, and 20 min, 85% B. The flow rate was 0.15 ml/min from 0 to 10 min and 15 to 20 min, and 0.3 ml/min from 10.5 to 14.5 min. All solvents were LCMS grade and purchased from Thermo Fisher Scientific.\nThe Q Exactive MS (Thermo Scientific) is equipped with a heated electrospray ionization probe (HESI), and the relevant parameters are as listed: evaporation temperature, 120° C.; sheath gas, 30; auxiliary gas, 10; sweep gas, 3; spray voltage, 3.6 kV for positive mode and 2.5 kV for negative mode. Capillary temperature was set at 320° C., and S-lens was 55. A full scan range from 60 to 900 (m/z) was used. The resolution was set at 70,000. The maximum injection time was 200 ms. Automated gain control (AGC) was targeted at 3,000,000 ions.\nRaw data collected from LC-Q Exactive MS were processed on Sieve 2.0 (Thermo Scientific) and ToxID 2.0 (Thermo Scientific). Peak alignment and detection were performed according to the protocol described by Thermo Scientific. For targeted metabolite analysis, the method ‘peak alignment and frame extraction’ was applied. An input file of theoretical m/z and detected retention time of 204 known metabolites was used for targeted metabolites analysis with data collected in positive mode, while a separate input file of 278 metabolites was used for negative mode. M/Z width was set at 10 ppm. The output file including detected m/z and relative intensity in different samples was obtained after data processing. The quantity of the metabolite fraction analyzed was adjusted to the corresponding protein concentration and cell count upon processing a parallel 6-well plate. Quantitation and statistics were calculated and visualized with Microsoft Excel, MORPHEUS and MetaboAnalyst online software."}}}
{"smiles": "O=C(Cc1ccccc1)Nc1nnc(CCSCCc2nnc(NC(=O)Cc3ccccc3)s2)s1", "note": "[BPTES]", "values": [{"measurement": "EC50", "setting": "[1]", "result": "~20", "unit": "µM"}, {"measurement": "supply of glutamine-derived carbon to glutamate and the TCA cycle", "setting": "[2]; Hs 578T, 10 μM", "result": "potently inhibited"}, {"measurement": "glutamine anaplerosis", "setting": "[2]; MCF7, 10 μM", "result": "partially blocked"}, {"measurement": "supply of glutamine-derived carbon to glutamate and the TCA cycle", "setting": "[2]; MDA-MB-231, 10 μM", "result": "potently inhibited"}, {"measurement": "glutamine-mediated anaplerosis", "setting": "[2]; MDA-MB-453, 10 μM", "result": "no impact"}]}
{"smiles": "CN(C)c1ccc(C2Nc3ccc4ccccc4c3C3=C2C(=O)CC(C)(C)C3)cc1Br", "note": "(stereo not drawn) [Compound 968]", "values": [{"measurement": "EC50", "setting": "[1]", "result": 4, "unit": "µM"}, {"measurement": "anaplerosis effect compared between cell lines", "setting": "[2]; 10 μM, MDA-MB-453 versus MDA-MB-231", "result": "more pronounced in MDA-MB-453 cells than MDA-MB-231 cells"}, {"measurement": "total abundance of TCA cycle intermediates", "setting": "[2]; MDA-MB-231 and MDA-MB-453, 10 μM, different periods of time", "result": "decreased"}, {"measurement": "glutamine-mediated TCA cycle anaplerosis", "setting": "[2]; basal- and luminal-subtype cells, 10 μM, 10, 24 and 72 hours", "result": "time-dependent inhibition"}]}
